Measured values taken from the NIST ThermoML archive (doi:10.1021/je020189p).
Where “and” joins values, the source holds several entries; their conditions need not be identical. Equal values may be shown once. Numbers after ± are expanded uncertainties.

[Cl-].[Cl-].[Cl-].[Gd+3] [gadolinium(III) chloride]
Liquid
Conditions	vapor or sublimation pressure
930 K	3.31e-05 ± 1e-05 kPa
952 K	6.76e-05 ± 2.1e-05 kPa
957 K	8.32e-05 ± 2.5e-05 kPa
958 K	6.31e-05 ± 1.9e-05 kPa
965 K	7.76e-05 ± 2.4e-05 kPa
970 K	0.000129 ± 3.9e-05 kPa
973 K	9.77e-05 ± 2.9e-05 kPa
983 K	0.000141 ± 4.3e-05 kPa and 0.000178 ± 5.4e-05 kPa
994 K	0.000195 ± 5.9e-05 kPa
996 K	0.000224 ± 6.8e-05 kPa
1002 K	0.000324 ± 9.7e-05 kPa
1004 K	0.000251 ± 7.6e-05 kPa
1011 K	0.000331 ± 0.0001 kPa
1015 K	0.000355 ± 0.00011 kPa
1022 K	0.000562 ± 0.00017 kPa
1023 K	0.000479 ± 0.00015 kPa
1024 K	0.00049 ± 0.00015 kPa
1042 K	0.000794 ± 0.00024 kPa
1044 K	0.001 ± 0.0003 kPa
1046 K	0.001 ± 0.0003 kPa
1052 K	0.00102 ± 0.00031 kPa
1054 K	0.00141 ± 0.00042 kPa
1061 K	0.00135 ± 0.00041 kPa
1062 K	0.00138 ± 0.00041 kPa
1071 K	0.00174 ± 0.00052 kPa
1076 K	0.00219 ± 0.00066 kPa
1082 K	0.00234 ± 0.0007 kPa
1086 K	0.00269 ± 0.00081 kPa
1090 K	0.00275 ± 0.00083 kPa
1091 K	0.00339 ± 0.001 kPa
1093 K	0.00302 ± 0.00091 kPa
1099 K	0.00339 ± 0.001 kPa
1103 K	0.00437 ± 0.0013 kPa
1107 K	0.00417 ± 0.0013 kPa
1113 K	0.00575 ± 0.0017 kPa
1116 K	0.00513 ± 0.0015 kPa
1117 K	0.00603 ± 0.0018 kPa
1120 K	0.00589 ± 0.0018 kPa and 0.00603 ± 0.0018 kPa
1126 K	0.00759 ± 0.0023 kPa and 0.00661 ± 0.002 kPa
1134 K	0.00871 ± 0.0026 kPa
1135 K	0.00794 ± 0.0024 kPa
1138 K	0.00977 ± 0.0029 kPa
1144 K	0.01 ± 0.003 kPa
1147 K	0.0129 ± 0.0039 kPa
1151 K	0.0126 ± 0.0038 kPa
1154 K	0.0132 ± 0.004 kPa
1156 K	0.0158 ± 0.0048 kPa
1165 K	0.0182 ± 0.0055 kPa
1170 K	0.0219 ± 0.0066 kPa
1177 K	0.024 ± 0.0072 kPa
1187 K	0.0324 ± 0.0097 kPa
1190 K	0.0316 ± 0.0095 kPa
1203 K	0.0407 ± 0.012 kPa
1213 K	0.0501 ± 0.015 kPa

[I][Gd]([I])[I] [gadolinium triiodide]
Crystal
Conditions	vapor or sublimation pressure
890 K	4.47e-05 ± 1.4e-05 kPa
891 K	5.62e-05 ± 1.7e-05 kPa
901 K	6.76e-05 ± 2e-05 kPa and 8.32e-05 ± 2.5e-05 kPa and 5.62e-05 ± 1.7e-05 kPa
905 K	8.51e-05 ± 2.6e-05 kPa
911 K	0.000112 ± 3.4e-05 kPa
912 K	8.91e-05 ± 2.7e-05 kPa
913 K	0.000112 ± 3.4e-05 kPa
914 K	0.000138 ± 4.2e-05 kPa and 8.91e-05 ± 2.7e-05 kPa
916 K	0.000112 ± 3.4e-05 kPa
918 K	0.000135 ± 4.2e-05 kPa
919 K	0.000155 ± 4.8e-05 kPa
920 K	0.000112 ± 3.4e-05 kPa
922 K	0.000178 ± 5.4e-05 kPa
924 K	0.000123 ± 3.8e-05 kPa
925 K	0.000178 ± 5.4e-05 kPa
927 K	0.000174 ± 5.3e-05 kPa and 0.000151 ± 4.6e-05 kPa
928 K	0.000145 ± 4.4e-05 kPa and 0.000195 ± 5.9e-05 kPa and 0.000209 ± 6.3e-05 kPa
929 K	0.000234 ± 7e-05 kPa
933 K	0.000191 ± 5.8e-05 kPa
934 K	0.000269 ± 8.1e-05 kPa
936 K	0.0002 ± 6.2e-05 kPa
937 K	0.000282 ± 8.5e-05 kPa and 0.000251 ± 7.6e-05 kPa
938 K	0.000324 ± 9.8e-05 kPa
939 K	0.000295 ± 9.2e-05 kPa
942 K	0.000347 ± 0.00011 kPa and 0.000269 ± 8.2e-05 kPa
943 K	0.000245 ± 7.5e-05 kPa
944 K	0.000355 ± 0.00011 kPa
946 K	0.000398 ± 0.00012 kPa
947 K	0.000389 ± 0.00012 kPa
948 K	0.000372 ± 0.00011 kPa
951 K	0.000331 ± 0.0001 kPa
952 K	0.00049 ± 0.00015 kPa
954 K	0.000417 ± 0.00013 kPa
955 K	0.000525 ± 0.00016 kPa and 0.000603 ± 0.00018 kPa
957 K	0.000575 ± 0.00018 kPa and 0.000457 ± 0.00014 kPa
959 K	0.000447 ± 0.00014 kPa
962 K	0.000708 ± 0.00021 kPa
964 K	0.000794 ± 0.00024 kPa
966 K	0.000575 ± 0.00017 kPa and 0.000794 ± 0.00024 kPa and 0.000631 ± 0.00019 kPa
967 K	0.000724 ± 0.00022 kPa
970 K	0.000912 ± 0.00028 kPa
973 K	0.00107 ± 0.00032 kPa
974 K	0.00102 ± 0.00031 kPa
975 K	0.00107 ± 0.00032 kPa and 0.000891 ± 0.00027 kPa
978 K	0.000832 ± 0.00025 kPa and 0.00107 ± 0.00032 kPa
979 K	0.00126 ± 0.00038 kPa
983 K	0.00135 ± 0.00041 kPa and 0.00115 ± 0.00035 kPa
984 K	0.00145 ± 0.00044 kPa
985 K	0.00158 ± 0.00047 kPa
987 K	0.00162 ± 0.00049 kPa
988 K	0.00115 ± 0.00035 kPa
990 K	0.00155 ± 0.00047 kPa
992 K	0.00174 ± 0.00054 kPa and 0.00141 ± 0.00044 kPa
993 K	0.00191 ± 0.00057 kPa and 0.00204 ± 0.00061 kPa
995 K	0.00214 ± 0.00065 kPa
997 K	0.00138 ± 0.00042 kPa
1002 K	0.00251 ± 0.00076 kPa and 0.00219 ± 0.00066 kPa
1003 K	0.00269 ± 0.00081 kPa
1006 K	0.00191 ± 0.00058 kPa
1011 K	0.00331 ± 0.001 kPa and 0.00282 ± 0.00085 kPa
1012 K	0.00355 ± 0.0011 kPa
1019 K	0.00339 ± 0.001 kPa
1021 K	0.00389 ± 0.0012 kPa
1023 K	0.00676 ± 0.002 kPa
1026 K	0.00407 ± 0.0013 kPa
1033 K	0.00871 ± 0.0026 kPa and 0.00537 ± 0.0016 kPa
1040 K	0.00603 ± 0.0018 kPa
1042 K	0.00692 ± 0.0021 kPa
1045 K	0.0126 ± 0.0038 kPa
1052 K	0.00871 ± 0.0026 kPa
1054 K	0.00977 ± 0.003 kPa
1055 K	0.017 ± 0.0052 kPa
1064 K	0.0219 ± 0.0066 kPa
1066 K	0.0135 ± 0.0041 kPa and 0.0145 ± 0.0044 kPa
1074 K	0.0302 ± 0.0091 kPa
1076 K	0.0209 ± 0.0063 kPa
1082 K	0.0214 ± 0.0065 kPa
1083 K	0.0398 ± 0.012 kPa
1086 K	0.0282 ± 0.0086 kPa
1094 K	0.0537 ± 0.016 kPa
1097 K	0.0372 ± 0.011 kPa
1102 K	0.0676 ± 0.021 kPa

[Cl][Tb]([Cl])[Cl] [terbium trichloride]
Liquid
Conditions	vapor or sublimation pressure
921 K	6.76e-05 ± 2.4e-05 kPa
931 K	0.0001 ± 3.5e-05 kPa
937 K	0.000135 ± 4.8e-05 kPa
942 K	0.000209 ± 7.3e-05 kPa
943 K	0.00017 ± 6e-05 kPa
946 K	0.000166 ± 5.8e-05 kPa
950 K	0.000204 ± 7.2e-05 kPa
953 K	0.000219 ± 7.9e-05 kPa
957 K	0.000331 ± 0.00012 kPa and 0.000245 ± 8.6e-05 kPa
961 K	0.000288 ± 0.0001 kPa
965 K	0.000302 ± 0.00011 kPa
967 K	0.000331 ± 0.00012 kPa
971 K	0.000501 ± 0.00018 kPa and 0.000372 ± 0.00013 kPa
975 K	0.000407 ± 0.00014 kPa
976 K	0.000331 ± 0.00012 kPa
979 K	0.000447 ± 0.00016 kPa and 0.000331 ± 0.00012 kPa
980 K	0.000501 ± 0.00018 kPa
984 K	0.000537 ± 0.00019 kPa
988 K	0.000832 ± 0.00029 kPa
990 K	0.000661 ± 0.00023 kPa
992 K	0.000501 ± 0.00018 kPa
994 K	0.000708 ± 0.00025 kPa and 0.000741 ± 0.00026 kPa
995 K	0.000501 ± 0.00018 kPa
998 K	0.000794 ± 0.00028 kPa
999 K	0.00107 ± 0.00038 kPa and 0.000912 ± 0.00032 kPa
1006 K	0.00105 ± 0.00037 kPa and 0.000741 ± 0.00026 kPa
1009 K	0.000741 ± 0.00026 kPa
1010 K	0.00123 ± 0.00043 kPa and 0.00115 ± 0.0004 kPa
1011 K	0.00148 ± 0.00052 kPa
1017 K	0.00132 ± 0.00046 kPa [middle of 4 runs]
1020 K	0.00158 ± 0.00056 kPa
1021 K	0.00191 ± 0.00067 kPa
1024 K	0.00166 ± 0.00059 kPa
1026 K	0.00178 ± 0.00062 kPa
1027 K	0.00123 ± 0.00045 kPa
1028 K	0.00123 ± 0.00044 kPa
1029 K	0.00209 ± 0.00074 kPa
1033 K	0.00257 ± 0.0009 kPa
1034 K	0.00214 ± 0.00075 kPa
1035 K	0.00148 ± 0.00052 kPa
1037 K	0.00251 ± 0.00088 kPa and 0.00158 ± 0.00056 kPa
1038 K	0.00257 ± 0.00091 kPa
1043 K	0.00263 ± 0.00092 kPa and 0.00191 ± 0.00067 kPa
1045 K	0.00355 ± 0.0012 kPa
1047 K	0.00331 ± 0.0012 kPa
1048 K	0.00209 ± 0.00075 kPa
1053 K	0.00447 ± 0.0016 kPa
1054 K	0.00355 ± 0.0013 kPa and 0.00245 ± 0.00088 kPa
1056 K	0.00372 ± 0.0013 kPa
1057 K	0.00417 ± 0.0015 kPa
1058 K	0.00263 ± 0.00095 kPa
1059 K	0.00389 ± 0.0014 kPa
1064 K	0.00575 ± 0.002 kPa
1065 K	0.00513 ± 0.0018 kPa
1067 K	0.00372 ± 0.0013 kPa
1071 K	0.00676 ± 0.0024 kPa and 0.00372 ± 0.0013 kPa
1072 K	0.00525 ± 0.0019 kPa
1073 K	0.00525 ± 0.0019 kPa
1075 K	0.00617 ± 0.0022 kPa
1081 K	0.00851 ± 0.003 kPa
1082 K	0.00537 ± 0.0019 kPa
1091 K	0.00851 ± 0.003 kPa
1092 K	0.0112 ± 0.0039 kPa
1093 K	0.00708 ± 0.0025 kPa
1102 K	0.0141 ± 0.0049 kPa
1105 K	0.00912 ± 0.0032 kPa
1117 K	0.0117 ± 0.0041 kPa
